In PubChem BioAssay (NCI) one finds TGI and GI50 data, which are given here for 16 compounds.

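Grown in 96-well plates, cells were treated for 48 hours with each compound at five concentrations. Insufficient inhibition: endpoint recorded as highest concentration tested. GI50 is the concentration that inhibits growth by half. TGI is the concentration that stops growth completely.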 Some results are limits rather than exact numbers.

Among the test systems are HL-60(TB) leukemia; RPMI-8226 leukemia; CAKI-1 renal; MOLT-4 leukemia; NCI-H460 lung; HT29 colon; 786-0 renal; HCC-2998 colon; HS 578T breast.
Assay in all cases: NCI anticancer screen, dose series, 48 h

On to `O=C1c2ccccc2CC1C1(O)C(=O)Nc2ccccc21` (stereo not given), for which the TGI in the experiment with HL-60(TB) leukemia, with RPMI-8226 leukemia, with CAKI-1 renal, with MOLT-4 leukemia, in the experiment on NCI-H460 lung and with HT29 colon was more than 100 µM in each case. In the experiment on 786-0 renal, this compound came in with a TGI of more than 100 µM.

Regarding `N#Cc1cc([N+](=O)[O-])ccc1NC(=O)/C(=N/N)C(C(=O)c1ccc(Cl)c(Cl)c1)C1OC(=O)c2ccccc21` (stereo not given), the TGI with HCC-2998 colon, in the experiment with RPMI-8226 leukemia, in the experiment on CAKI-1 renal, in the experiment on MOLT-4 leukemia, in the experiment with NCI-H460 lung and in the experiment with HT29 colon was more than 100 µM each time. Further, the TGI with 786-0 renal is more than 100 µM.

In the case of `COc1cc(C)c(O)c(C(=O)O)c1`, the TGI in the experiment with HCC-2998 colon, in the experiment with CAKI-1 renal, in the experiment on MOLT-4 leukemia, in the experiment with NCI-H460 lung, in the experiment on HT29 colon and with 786-0 renal was more than 100 µM in each case.

In the case of `CCOC(=O)c1nc(-c2ccccc2)oc1OCC`, the TGI in the experiment with HCC-2998 colon, in the experiment on HL-60(TB) leukemia, in the experiment with RPMI-8226 leukemia, with MOLT-4 leukemia, with NCI-H460 lung and with HT29 colon was more than 100 µM throughout. This compound yielded a TGI with 786-0 renal of more than 100 µM.

For the compound `Cc1ccc(Sc2ccc(C)cc2[N+](=O)[O-])c([N+](=O)[O-])c1`, the TGI in the experiment on HCC-2998 colon was more than 100 µM; in the experiment with HL-60(TB) leukemia, more than 100 µM; with RPMI-8226 leukemia it was more than 100 µM; in the experiment on CAKI-1 renal, more than 10 µM; with MOLT-4 leukemia it was more than 100 µM; in the experiment on NCI-H460 lung, more than 100 µM. Besides, the TGI with HT29 colon is more than 10 µM; with 786-0 renal, more than 100 µM.

As for `CCOC(=O)C1=C(Nc2cccc3ccccc23)OC/C1=N\NC(=O)c1ccccc1O`, the TGI was more than 100 µM in the experiment with HCC-2998 colon; 37.8 µM in the experiment on HL-60(TB) leukemia; more than 100 µM with RPMI-8226 leukemia; 80.2 µM in the experiment with CAKI-1 renal; 53.5 µM in the experiment with MOLT-4 leukemia; more than 71.4 µM in the experiment with NCI-H460 lung. For the same compound, the TGI with HT29 colon is more than 88.5 µM; with 786-0 renal, more than 100 µM.

As for `COc1cccc2nc3cc(C)c(C)cc3nc12`, the TGI in the experiment with HCC-2998 colon, with HL-60(TB) leukemia, with CAKI-1 renal, in the experiment with MOLT-4 leukemia, with NCI-H460 lung and with HT29 colon was more than 100 µM each time. Further, the TGI in the experiment with 786-0 renal is more than 100 µM.

For the compound `COC(=O)C1=C(O)c2cc3c(cc2[C@H](c2cc(OC)c(OC)c(OC)c2)C1C(=O)OC)OCO3` (stereo not given in full), the TGI is more than 100 µM with HCC-2998 colon; more than 100 µM in the experiment on HL-60(TB) leukemia; more than 100 µM in the experiment with RPMI-8226 leukemia; 89.6 µM with CAKI-1 renal; more than 100 µM with MOLT-4 leukemia; more than 100 µM in the experiment with NCI-H460 lung. Moreover, the TGI in the experiment on HT29 colon and in the experiment on 786-0 renal was more than 100 µM in each case.

With `CC(C)C12C=CC(C)(CC1)n1c(=O)c3cc4ccccc4cc3c(=O)n12` (stereo not given), the TGI in the experiment on HCC-2998 colon, in the experiment on HL-60(TB) leukemia, in the experiment on RPMI-8226 leukemia, with CAKI-1 renal, in the experiment with MOLT-4 leukemia and in the experiment on NCI-H460 lung was more than 100 µM each time. Besides, the TGI in the experiment on HT29 colon and in the experiment on 786-0 renal was more than 100 µM in each case.

Take `COC(=O)C1=C(C(=O)OC)SC(=C(N=Nc2ccccc2)c2ccccc2)S1`: the TGI in the experiment with HCC-2998 colon, in the experiment with HL-60(TB) leukemia, in the experiment with RPMI-8226 leukemia, in the experiment with CAKI-1 renal, in the experiment on MOLT-4 leukemia and with NCI-H460 lung was more than 100 µM throughout. Also, the TGI in the experiment on HT29 colon and in the experiment with 786-0 renal was more than 100 µM throughout.

As to `COC(=O)c1cc(-c2cccn2C)c2c(c1C(=O)OC)c1ccccc1n2C`, the TGI is more than 100 µM in the experiment on HCC-2998 colon; more than 100 µM with HL-60(TB) leukemia; more than 100 µM in the experiment on RPMI-8226 leukemia; 29.3 µM with MOLT-4 leukemia; more than 100 µM in the experiment with NCI-H460 lung; more than 100 µM in the experiment with HT29 colon. For the same compound, in the experiment with 786-0 renal, the TGI was more than 100 µM.

Regarding `CCN1C(=O)N(CC)C2C1NN=c1s/c(=C\c3cc4ccccc4[nH]3)c(=O)n12` (stereo not given), the GI50 was 0.0382 µM with HCC-2998 colon; less than 0.0203 µM with HS 578T breast; less than 0.0117 µM in the experiment with HL-60(TB) leukemia; less than 0.0185 µM in the experiment on RPMI-8226 leukemia; less than 0.0169 µM with CAKI-1 renal; less than 0.018 µM with MOLT-4 leukemia. In addition, the GI50 in the experiment on NCI-H460 lung was 0.0331 µM; with HT29 colon, less than 0.01 µM; in the experiment on 786-0 renal, 0.0387 µM. In addition, the TGI is more than 100 µM with HCC-2998 colon; 9.1 µM with HS 578T breast; less than 0.0191 µM with HL-60(TB) leukemia; 2.19 µM in the experiment on RPMI-8226 leukemia; 11.6 µM with CAKI-1 renal; more than 100 µM with MOLT-4 leukemia. For the same compound, the TGI is 14.8 µM with NCI-H460 lung, more than 100 µM with HT29 colon and 22.3 µM in the experiment with 786-0 renal.

Turning to `O=C(Nc1nc(=S)c2c(ncn2CCO)[nH]1)c1ccccc1`, the TGI in the experiment on HL-60(TB) leukemia, with RPMI-8226 leukemia, in the experiment with CAKI-1 renal, with NCI-H460 lung, in the experiment with HT29 colon and in the experiment on 786-0 renal was more than 100 µM throughout.

As for `O=c1[nH]c(-c2ccc(-c3nc4cc([N+](=O)[O-])ccc4c(=O)[nH]3)cc2)nc2cc([N+](=O)[O-])ccc12`, the TGI in the experiment with HCC-2998 colon, in the experiment with HL-60(TB) leukemia, in the experiment with RPMI-8226 leukemia, in the experiment on CAKI-1 renal, with MOLT-4 leukemia and in the experiment with NCI-H460 lung was more than 100 µM throughout. The TGI with HT29 colon and with 786-0 renal was more than 100 µM each time.

`C=CC1C(OC2OC(CO)C(O)C(O)C2O)OC=C(C(=O)OC)C1CC=O` (stereo not given): the TGI in the experiment on HL-60(TB) leukemia, in the experiment on RPMI-8226 leukemia, with MOLT-4 leukemia and in the experiment with 786-0 renal was more than 100 µM in each case.

For `COc1ccc2c(c1)C(C)Cc1c(Cl)nc(C)nc1N2C` (stereo not given), the GI50 in the experiment with HCC-2998 colon was 2.29 µM; in the experiment with HS 578T breast, 3.98 µM; in the experiment with HL-60(TB) leukemia it was 2.54 µM; in the experiment on RPMI-8226 leukemia, 4.14 µM; in the experiment with CAKI-1 renal it was 2.56 µM; in the experiment with MOLT-4 leukemia, 5.01 µM. Also, the GI50 was 3.09 µM in the experiment with NCI-H460 lung, 2.2 µM in the experiment with HT29 colon and 3.94 µM in the experiment on 786-0 renal. Besides, the TGI in the experiment on HCC-2998 colon was 8.93 µM; with HS 578T breast, 64.4 µM; in the experiment with HL-60(TB) leukemia, more than 100 µM; with RPMI-8226 leukemia, 36 µM; with CAKI-1 renal, more than 100 µM; in the experiment on MOLT-4 leukemia it was more than 100 µM. Also, the TGI turned out to be 15.4 µM in the experiment with NCI-H460 lung, 8.92 µM in the experiment with HT29 colon and 32 µM in the experiment on 786-0 renal.
